Assay results as given in ChEMBL document CHEMBL5727909, “Pyridine derivatives and their use in the treatment of cancer and hemoglobinopathies” (2020).

Target: Protein arginine N-methyltransferase 5 (Homo sapiens, UniProt O14744)
Test: Biochemical Assay : The 6 μL reactions are run in Greiner brand black 384-well low volume assay plates. All reactions contained assay buffer (phosphate buffered saline, 0.01% (v/v) Tween-20, 0.01% (w/v) albumin from chicken egg white, 1 mM Dithiothreitol, 1 μM peptide substrate, 1 μM S-Adenosyl methionine, and 15 ng/reaction enzyme, with the enzyme being omitted from negative control reactions. Compounds were added in a volume of 100 nL from dilution series prepared in DMSO, positive and negative control reactions receiving the same volume DMSO without compound. The plates were sealed with adhesive seals and incubated for 4 hours at 37 degree Celsius. Reaction progress was measured using the Transcreener EPIGEN methyltransferase assay (BellBrook Labs, Madison, Wis.) as recommended by the manufacturer. To each reaction 2 μL detection mix were added, containing coupling enzymes, fluorescence polarisation tracer, and AMP antibody. Plates were incubated for 90 minutes before being read on a PerkinElmer EnVision™ plate reader in fluorescence polarisation mode.

Protein arginine N-methyltransferase 5, sequence (O14744 whole entry): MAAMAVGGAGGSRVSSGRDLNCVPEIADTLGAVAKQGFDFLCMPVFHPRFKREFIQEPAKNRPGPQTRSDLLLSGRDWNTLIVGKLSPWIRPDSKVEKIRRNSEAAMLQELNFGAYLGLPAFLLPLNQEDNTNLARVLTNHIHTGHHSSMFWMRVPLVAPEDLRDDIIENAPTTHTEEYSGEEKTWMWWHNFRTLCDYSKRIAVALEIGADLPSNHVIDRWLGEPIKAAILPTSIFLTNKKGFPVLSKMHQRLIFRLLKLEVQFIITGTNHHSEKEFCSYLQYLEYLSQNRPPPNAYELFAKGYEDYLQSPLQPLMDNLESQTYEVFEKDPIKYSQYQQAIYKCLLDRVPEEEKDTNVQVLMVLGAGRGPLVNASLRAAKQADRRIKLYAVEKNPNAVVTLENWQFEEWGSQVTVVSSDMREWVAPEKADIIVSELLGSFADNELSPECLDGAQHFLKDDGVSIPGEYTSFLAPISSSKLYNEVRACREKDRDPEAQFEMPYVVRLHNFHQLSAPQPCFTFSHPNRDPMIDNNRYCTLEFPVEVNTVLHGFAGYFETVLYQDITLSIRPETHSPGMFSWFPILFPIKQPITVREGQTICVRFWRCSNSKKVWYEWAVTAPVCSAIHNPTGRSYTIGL

IC50: 105 nM
SMILES: CC(=O)N1CCC(Nc2nccc(C(=O)NC[C@@H](O)CNC3CC4C=CC=CC4C3)c2C)CC1 (stereo partly specified)
